As a reminder, the IC50 is the concentration that gives 50% inhibition.

Structures can show the parent of a compound that is named as a salt.

The assay deals with IGF1-receptor (Homo sapiens, UniProt P08069). The assay can be described thus: IGF1-Receptor Tyrosine Kinase Assay. The settings on record: ATP 25 μM; FL-peptide 1.5 μM; IGF1-Receptor 14 nM; 60 min room temperature; read-out: IGF-1R IC50. It is filed as biochemical. On the procedure: D. IGF1-Receptor Tyrosine Kinase Assay
Sequence of IGF1-receptor (P08069 31-1367): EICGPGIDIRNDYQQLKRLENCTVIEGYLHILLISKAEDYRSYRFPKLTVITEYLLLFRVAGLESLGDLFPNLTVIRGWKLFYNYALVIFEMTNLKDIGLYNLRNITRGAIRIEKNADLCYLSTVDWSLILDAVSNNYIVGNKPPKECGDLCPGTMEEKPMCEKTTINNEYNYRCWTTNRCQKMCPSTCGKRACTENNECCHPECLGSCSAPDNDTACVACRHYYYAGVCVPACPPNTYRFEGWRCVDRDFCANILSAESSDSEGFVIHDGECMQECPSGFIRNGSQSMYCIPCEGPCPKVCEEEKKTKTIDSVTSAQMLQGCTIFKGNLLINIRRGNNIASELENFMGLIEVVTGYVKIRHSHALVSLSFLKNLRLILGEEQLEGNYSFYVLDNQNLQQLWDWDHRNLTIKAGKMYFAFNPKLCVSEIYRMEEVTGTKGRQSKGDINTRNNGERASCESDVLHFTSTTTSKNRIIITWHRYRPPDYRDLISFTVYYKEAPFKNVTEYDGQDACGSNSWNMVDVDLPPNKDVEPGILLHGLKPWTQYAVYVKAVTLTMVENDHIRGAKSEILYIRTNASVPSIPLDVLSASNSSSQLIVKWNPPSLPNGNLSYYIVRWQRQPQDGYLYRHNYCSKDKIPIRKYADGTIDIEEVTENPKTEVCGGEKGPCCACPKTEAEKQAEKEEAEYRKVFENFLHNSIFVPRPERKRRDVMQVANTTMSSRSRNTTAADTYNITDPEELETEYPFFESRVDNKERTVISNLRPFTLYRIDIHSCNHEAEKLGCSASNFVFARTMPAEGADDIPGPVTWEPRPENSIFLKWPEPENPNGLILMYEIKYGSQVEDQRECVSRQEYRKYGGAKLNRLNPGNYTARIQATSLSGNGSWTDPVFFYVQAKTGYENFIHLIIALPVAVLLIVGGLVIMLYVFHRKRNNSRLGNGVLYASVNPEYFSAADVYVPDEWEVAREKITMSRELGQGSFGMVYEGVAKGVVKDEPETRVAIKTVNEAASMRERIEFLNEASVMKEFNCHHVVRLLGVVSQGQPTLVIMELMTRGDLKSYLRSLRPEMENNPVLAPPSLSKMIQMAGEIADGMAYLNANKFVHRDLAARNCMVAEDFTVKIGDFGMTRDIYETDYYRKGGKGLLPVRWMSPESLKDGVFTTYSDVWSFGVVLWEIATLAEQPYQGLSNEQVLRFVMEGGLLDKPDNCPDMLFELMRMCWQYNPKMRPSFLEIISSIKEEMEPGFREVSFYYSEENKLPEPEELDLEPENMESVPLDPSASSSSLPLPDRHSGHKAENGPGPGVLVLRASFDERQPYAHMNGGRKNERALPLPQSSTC
The assays were performed in U-bottom 384-well plates. The final assay volume was 30 μl prepared from 15 μl additions of enzyme and substrates (fluoresceinated IGF1R substrate peptide and ATP) and test compounds in assay buffer (100 mM HEPES pH 7.4, 10 mM MnCl2, 0.015% Brij35 and 4 mM DTT). The reaction was initiated by the combination of IGF1-receptor with substrates and test compounds. The reaction was incubated at room temperature for 60 min. and terminated by adding 30 μl of 35 mM EDTA to each sample. The reaction mixture was analyzed on the Caliper LabChip 3000 by electrophoretic separation of the fluorescent substrate and phosphorylated product. Inhibition data were calculated by comparison to no enzyme control reactions for 100% inhibition and vehicle-only reactions for 0% inhibition. The final concentration of reagents in the assays is ATP, 25 μM; FL-peptide, 1.5 μM; IGF1-Receptor, 14 nM; and DMSO, 1.6%. Dose response curves were generated to determine the concentration required to inhibit 50% of kinase activity (IC50). Compounds were dissolved at 10 mM in dimethylsulfoxide (DMSO) and evaluated at eleven concentrations, each in duplicate. IC50 values were derived by non-linear regression analysis.
Regarding `O=C(NCCc1c[nH]c2ccc(O)cc12)c1nccc(Sc2cnc(Nc3ccccn3)s2)c1F` [Example 33, 3-Fluoro-N-(2-(5-hydroxy-1H-indol-3-yl)ethyl)-4-(2-(pyridin-2-ylamino)thiazol-5-ylthio)picolinamide], the IC50 amounted to 693 nM.

As to `CC(C)(C)CNCC(CNC(=O)c1nccc(Sc2cnc(Nc3ccccn3)s2)c1F)(c1ccccc1)c1ccccc1` [Example 36, 3-Fluoro-N-(3-(neopentylamino)-2,2-diphenylpropyl)-4-(2-(pyridin-2-ylamino)thiazol-5-ylthio)picolinamide], the IC50 came out at 2950 nM.

As to `Cc1ccnc(Nc2ncc(Sc3ccnc(C(=O)NCC(CN4CCCCC4)(c4ccccc4)c4ccccc4)c3F)s2)c1` [Example 49, N-(2,2-diphenyl-3-(piperidin-1-yl)propyl)-3-fluoro-4-(2-(4-methylpyridin-2-ylamino)thiazol-5-ylthio)picolinamide], the IC50 was found to be 886 nM.

`Cc1ccnc(Nc2ncc(Sc3ccnc(C(=O)NCC(CN(C)CCO)(c4ccccc4)c4ccccc4)c3F)s2)c1` [Example 52, 3-Fluoro-N-(3-((2-hydroxyethyl)(methyl)amino)-2,2-diphenylpropyl)-4-(2-(4-methylpyridin-2-ylamino)thiazol-5-ylthio)picolinamide]: the IC50 was determined as 3 nM.

`Cc1ccnc(Nc2ncc(Sc3ccnc(C(=O)NCC(CNC(C)(C)C)(c4ccccc4)c4ccccc4)c3F)s2)c1` [Example 55, N-(3-(tert-butylamino)-2,2-diphenylpropyl)-3-fluoro-4-(2-(4-methylpyridin-2-ylamino)thiazol-5-ylthio)picolinamide]: the IC50 turned out to be 199 nM.

For the molecule `Cc1ccnc(Nc2ncc(Sc3ccnc(C(=O)NCC(c4ccccc4)c4ccccc4C)c3F)s2)c1` (stereo not drawn) [Example 56, 3-fluoro-4-(2-(4-methylpyridin-2-ylamino)thiazol-5-ylthio)-N-(2-phenyl-2-o-tolylethyl)picolinamide], the IC50 was determined as 891 nM.

Regarding `Cc1ccnc(Nc2ncc(Sc3ccnc(C(=O)NCC(c4ccccc4)c4ccccc4Br)c3F)s2)c1` (stereo not drawn) [Example 58, N-(2-(2-bromophenyl)-2-phenylethyl)-3-fluoro-4-(2-(4-methylpyridin-2-ylamino)thiazol-5-ylthio)picolinamide], the IC50 turned out to be 1520 nM.

With `O=C(NCC(c1ccccc1)c1ccccc1CO)c1nccc(Sc2cnc(Nc3ccccn3)s2)c1F` (stereo not drawn) [Example 63, 3-Fluoro-N-(2-(2-(hydroxymethyl)phenyl)-2-phenylethyl)-4-(2-(pyridin-2-ylamino)thiazol-5-ylthio)picolinamide], the IC50 was found to be 250 nM.

For the molecule `Cc1ccnc(Nc2ncc(Sc3ccnc(C(=O)NCC(c4ccccc4)c4ccccc4CO)c3F)s2)c1` (stereo not drawn) [Example 65, 3-Fluoro-N-(2-(2-(hydroxymethyl)phenyl)-2-phenylethyl)-4-(2-(4-methylpyridin-2-ylamino)thiazol-5-ylthio)picolinamide], the IC50 turned out to be 1 nM.

Turning to `Cc1ccnc(Nc2ncc(Sc3ccnc(C(=O)NCC(c4ccccc4)c4cccc(CO)c4)c3F)s2)c1` (stereo not drawn) [Example 67, 3-Fluoro-N-(2-(3-(hydroxymethyl)phenyl)-2-phenylethyl)-4-(2-(4-methylpyridin-2-ylamino)thiazol-5-ylthio)picolinamide hydrochloride], the IC50 came out at 288 nM.

For `CCNCC(CNC(=O)c1nccc(Sc2cnc(Nc3cc(C)ccn3)s2)c1F)(c1ccccc1)c1ccccc1` [Example 69, N-(3-(ethylamino)-2,2-diphenylpropyl)-3-fluoro-4-(2-(4-methylpyridin-2-ylamino)thiazol-5-ylthio)picolinamide], the IC50 turned out to be 5 nM.

Regarding `CCCC(O)(CNC(=O)c1nccc(Sc2cnc(Nc3ccc(CNC(=O)CN(C)C)cn3)s2)c1F)c1ccccc1` (stereo not drawn) [Example 77, 4-(2-(5-((2-(Dimethylamino)acetamido)methyl)pyridin-2-ylamino)thiazol-5-ylthio)-3-fluoro-N-(2-hydroxy-2-phenylpentyl)picolinamide], the IC50 came out at 4 nM.

As to `CCCC(O)(CNC(=O)c1nccc(Sc2cnc(Nc3ccc(CNC)cn3)s2)c1F)c1ccccc1` (stereo not drawn) [Example 82, 3-Fluoro-N-(2-hydroxy-2-phenylpentyl)-4-(2-(5-((methylamino)methyl)pyridin-2-ylamino)thiazol-5-ylthio)picolinamide], the IC50 was 3 nM.

Turning to `CCC[C@@](O)(CNC(=O)c1nccc(Sc2cnc(Nc3nccc4sccc34)s2)c1F)c1ccccc1` [Example 83, (S)-3-fluoro-N-(2-hydroxy-2-phenylpentyl)-4-(2-(thieno[3,2-c]pyridin-4-ylamino)thiazol-5-ylthio)picolinamide], the IC50 was determined as 394 nM.

In the case of “(S)-3-Fluoro-N-(2-(2-(hydroxymethyl)phenyl)-2-phenylethyl)-4-(2-(pyridin-2-ylamino)thiazol-5-ylthio)picolinamide and (R)-3-fluoro-N-(2-(2-(hydroxymethyl)phenyl)-2-phenylethyl)-4-(2-(pyridin-2-ylamino)thiazol-5-ylthio)picolinamide [Example 64]”, the IC50 was 316 nM.

(Values after patent publication US8148400B2, “Thiazolyl compounds useful as kinase inhibitors” (Bristol-Myers Squibb Company, priority 2006, dated 2012).)
